Test results: ChEMBL document CHEMBL4190397, “Design and Synthesis of Novel and Selective Glycine Transporter-1 (GlyT1) Inhibitors with Memory Enhancing Properties” (J Med Chem, 2018)

Legend:
[1] = biological target: T1, Sodium- and chloride-dependent glycine transporter 1 (Homo sapiens, UniProt P48067); assay: Inhibition of recombinant human GlyT1c expressed in HEK293 cells assessed as reduction in [14C]glycine uptake after 2 hrs by microbeta scintillation counting method; type: cell-based
T1 sequence (P48067 whole entry): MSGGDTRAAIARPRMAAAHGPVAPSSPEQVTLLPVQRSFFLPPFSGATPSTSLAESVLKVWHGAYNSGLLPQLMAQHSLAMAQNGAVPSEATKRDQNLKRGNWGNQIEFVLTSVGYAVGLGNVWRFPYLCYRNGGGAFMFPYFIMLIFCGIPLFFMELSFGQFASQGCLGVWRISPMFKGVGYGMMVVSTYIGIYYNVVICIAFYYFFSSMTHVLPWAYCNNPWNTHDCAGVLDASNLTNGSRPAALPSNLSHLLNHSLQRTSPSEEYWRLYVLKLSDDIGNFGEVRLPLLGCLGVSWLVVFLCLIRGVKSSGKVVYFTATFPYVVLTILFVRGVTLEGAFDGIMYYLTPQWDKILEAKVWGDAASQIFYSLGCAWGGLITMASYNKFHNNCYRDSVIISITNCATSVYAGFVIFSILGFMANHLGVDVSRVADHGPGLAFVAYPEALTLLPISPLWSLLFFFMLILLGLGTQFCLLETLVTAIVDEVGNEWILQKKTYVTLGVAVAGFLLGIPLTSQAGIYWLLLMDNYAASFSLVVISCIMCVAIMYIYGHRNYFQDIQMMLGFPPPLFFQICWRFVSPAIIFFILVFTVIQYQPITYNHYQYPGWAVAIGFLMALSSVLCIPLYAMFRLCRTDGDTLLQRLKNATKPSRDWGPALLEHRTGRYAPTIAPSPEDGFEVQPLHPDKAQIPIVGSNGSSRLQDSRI

[2] = biological target: T2, Sodium- and chloride-dependent glycine transporter 1 (Rattus norvegicus, UniProt P28572); assay: Inhibition of GlyT1 in primary rat cortical neurons assessed as reduction in [14C]glycine uptake after 2 hrs by microbeta scintillation counting method
T2 sequence (P28572 whole entry): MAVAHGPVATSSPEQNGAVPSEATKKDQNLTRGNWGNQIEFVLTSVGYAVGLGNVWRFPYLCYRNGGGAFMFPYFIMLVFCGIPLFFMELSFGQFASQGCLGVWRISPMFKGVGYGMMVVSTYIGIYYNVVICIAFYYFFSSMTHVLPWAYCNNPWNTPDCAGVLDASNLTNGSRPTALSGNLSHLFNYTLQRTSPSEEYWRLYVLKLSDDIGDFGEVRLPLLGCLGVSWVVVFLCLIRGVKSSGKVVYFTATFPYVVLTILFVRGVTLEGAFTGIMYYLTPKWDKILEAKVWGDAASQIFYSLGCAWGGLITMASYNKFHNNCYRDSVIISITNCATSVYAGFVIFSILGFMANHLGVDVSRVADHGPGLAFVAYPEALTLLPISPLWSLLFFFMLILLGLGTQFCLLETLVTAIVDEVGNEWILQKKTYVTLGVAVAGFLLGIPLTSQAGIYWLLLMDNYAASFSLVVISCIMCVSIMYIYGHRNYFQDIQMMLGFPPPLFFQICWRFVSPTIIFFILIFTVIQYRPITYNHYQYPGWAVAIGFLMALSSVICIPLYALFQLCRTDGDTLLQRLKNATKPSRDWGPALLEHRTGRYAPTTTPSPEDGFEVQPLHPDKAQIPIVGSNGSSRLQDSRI

[3] = Intrinsic clearance in human liver microsomes at 1 uM assessed per mg protein at 37 degC up to 60 mins in presence of NADPH by HPLC-MS analysis; type: ADME, microsome; conditions: read-out: CLH
[4] = Intrinsic clearance in rat liver microsomes at 1 uM assessed per mg protein at 37 degC up to 30 mins in presence of NADPH by HPLC-MS analysis; type: ADME, microsome; conditions: read-out: CLH
[5] = biological target: Voltage-gated inwardly rectifying potassium channel KCNH2 (Homo sapiens, UniProt Q12809); assay: Inhibition of human ERG expressed in CHO cells at 10 nM to 10 uM at holding potential of -80 mV measured after 5 mins by QPatch automated patch clamp electrophysiology method
[6] = Apparent permeability from apical to basolateral side in MDCK-MDR1 cells monolayer at 5 uM after 60 mins by LC-MS/MS analysis; conditions: dog
[7] = Apparent permeability from basolateral to apical side in MDCK-MDR1 cells monolayer at 5 uM after 60 mins by LC-MS/MS analysis; conditions: dog
[8] = Efflux ratio of apparent permeability from basolateral to apical over apical to basolateral side in MDCK-MDR1 cells at 5 uM after 60 mins by LC-MS/MS analysis; conditions: dog
[9] = biological target: T3, Cytochrome P450 1A2 (Homo sapiens, UniProt P05177); assay: Inhibition of CYP1A2 in human liver microsomes using phenacetin as substrate measured after 10 mins in presence of NADPH by LC-MS/MS analysis
T3 sequence (P05177 whole entry): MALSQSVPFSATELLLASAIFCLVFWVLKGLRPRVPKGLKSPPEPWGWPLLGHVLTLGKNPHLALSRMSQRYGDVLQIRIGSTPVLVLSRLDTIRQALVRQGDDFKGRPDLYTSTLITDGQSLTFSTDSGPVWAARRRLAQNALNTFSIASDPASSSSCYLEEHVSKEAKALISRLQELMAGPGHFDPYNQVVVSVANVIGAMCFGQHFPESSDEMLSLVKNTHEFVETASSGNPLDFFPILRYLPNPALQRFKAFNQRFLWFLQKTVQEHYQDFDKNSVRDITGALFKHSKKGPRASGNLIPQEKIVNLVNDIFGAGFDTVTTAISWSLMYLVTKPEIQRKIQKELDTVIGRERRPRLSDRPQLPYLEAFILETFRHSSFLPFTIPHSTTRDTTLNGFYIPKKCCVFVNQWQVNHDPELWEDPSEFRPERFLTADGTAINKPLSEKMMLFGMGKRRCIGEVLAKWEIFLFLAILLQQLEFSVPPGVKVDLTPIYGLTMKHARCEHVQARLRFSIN

[10] = biological target: Cytochrome P450 2C9 (Homo sapiens, UniProt P11712); assay: Inhibition of CYP2C9 in human liver microsomes using diclofenac as substrate measured after 10 mins in presence of NADPH by LC-MS/MS analysis
[11] = biological target: Cytochrome P450 2C19 (Homo sapiens, UniProt P33261); assay: Inhibition of CYP2C19 in human liver microsomes using S-mephenytoin as substrate measured after 10 mins in presence of NADPH by LC-MS/MS analysis
[12] = biological target: Cytochrome P450 2D6 (Homo sapiens, UniProt P10635); assay: Inhibition of CYP2D6 in human liver microsomes using dextromethorphan as substrate measured after 10 mins in presence of NADPH by LC-MS/MS analysis
[13] = biological target: Cytochrome P450 3A4 (Homo sapiens, UniProt P08684); assay: Inhibition of CYP3A4 in human liver microsomes using midazolam as substrate measured after 7 mins in presence of NADPH by LC-MS/MS analysis
[14] = Permeability of the compound at pH 7.4 at 100 uM after 60 mins by PAMPA-BBB assay

Sequence of Cytochrome P450 2C19 (P33261 whole entry): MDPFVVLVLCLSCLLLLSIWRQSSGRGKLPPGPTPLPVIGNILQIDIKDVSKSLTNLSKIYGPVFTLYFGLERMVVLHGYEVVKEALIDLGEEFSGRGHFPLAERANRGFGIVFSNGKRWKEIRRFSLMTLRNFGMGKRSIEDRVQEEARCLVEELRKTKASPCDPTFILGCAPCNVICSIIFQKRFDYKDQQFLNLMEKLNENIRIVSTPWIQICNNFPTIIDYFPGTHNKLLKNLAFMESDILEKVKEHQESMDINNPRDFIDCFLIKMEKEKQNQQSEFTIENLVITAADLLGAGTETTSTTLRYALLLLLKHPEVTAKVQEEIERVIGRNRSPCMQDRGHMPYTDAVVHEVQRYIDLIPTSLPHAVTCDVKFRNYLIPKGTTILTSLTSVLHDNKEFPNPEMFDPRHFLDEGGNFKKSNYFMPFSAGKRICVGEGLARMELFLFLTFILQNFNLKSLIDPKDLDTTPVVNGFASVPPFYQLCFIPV
Sequence of Cytochrome P450 2C9 (P11712 whole entry): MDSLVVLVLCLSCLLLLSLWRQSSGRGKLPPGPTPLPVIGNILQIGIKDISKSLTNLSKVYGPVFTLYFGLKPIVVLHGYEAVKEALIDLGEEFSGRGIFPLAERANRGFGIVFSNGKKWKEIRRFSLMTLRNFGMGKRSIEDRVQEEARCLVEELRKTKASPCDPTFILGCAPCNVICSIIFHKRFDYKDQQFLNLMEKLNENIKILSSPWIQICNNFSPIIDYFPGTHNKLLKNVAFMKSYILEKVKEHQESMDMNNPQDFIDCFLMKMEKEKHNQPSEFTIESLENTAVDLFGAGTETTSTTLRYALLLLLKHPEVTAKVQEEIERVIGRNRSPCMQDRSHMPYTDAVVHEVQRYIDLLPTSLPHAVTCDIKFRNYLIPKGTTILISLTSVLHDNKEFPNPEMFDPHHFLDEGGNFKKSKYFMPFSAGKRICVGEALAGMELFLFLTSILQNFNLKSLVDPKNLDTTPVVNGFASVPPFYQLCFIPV
Sequence of Cytochrome P450 2D6 (P10635 whole entry): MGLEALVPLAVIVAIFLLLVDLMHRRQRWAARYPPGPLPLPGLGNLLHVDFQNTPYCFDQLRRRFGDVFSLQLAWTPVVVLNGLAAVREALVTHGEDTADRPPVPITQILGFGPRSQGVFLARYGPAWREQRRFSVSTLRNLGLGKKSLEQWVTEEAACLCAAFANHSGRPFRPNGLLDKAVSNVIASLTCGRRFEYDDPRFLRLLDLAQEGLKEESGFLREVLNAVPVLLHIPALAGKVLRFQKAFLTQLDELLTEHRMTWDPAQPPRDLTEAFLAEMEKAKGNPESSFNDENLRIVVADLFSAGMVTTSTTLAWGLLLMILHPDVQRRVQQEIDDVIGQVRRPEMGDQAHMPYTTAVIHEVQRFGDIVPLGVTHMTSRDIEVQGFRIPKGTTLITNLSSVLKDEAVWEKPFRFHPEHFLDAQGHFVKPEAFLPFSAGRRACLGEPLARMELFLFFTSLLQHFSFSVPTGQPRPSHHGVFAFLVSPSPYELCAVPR
Sequence of Cytochrome P450 3A4 (P08684 whole entry): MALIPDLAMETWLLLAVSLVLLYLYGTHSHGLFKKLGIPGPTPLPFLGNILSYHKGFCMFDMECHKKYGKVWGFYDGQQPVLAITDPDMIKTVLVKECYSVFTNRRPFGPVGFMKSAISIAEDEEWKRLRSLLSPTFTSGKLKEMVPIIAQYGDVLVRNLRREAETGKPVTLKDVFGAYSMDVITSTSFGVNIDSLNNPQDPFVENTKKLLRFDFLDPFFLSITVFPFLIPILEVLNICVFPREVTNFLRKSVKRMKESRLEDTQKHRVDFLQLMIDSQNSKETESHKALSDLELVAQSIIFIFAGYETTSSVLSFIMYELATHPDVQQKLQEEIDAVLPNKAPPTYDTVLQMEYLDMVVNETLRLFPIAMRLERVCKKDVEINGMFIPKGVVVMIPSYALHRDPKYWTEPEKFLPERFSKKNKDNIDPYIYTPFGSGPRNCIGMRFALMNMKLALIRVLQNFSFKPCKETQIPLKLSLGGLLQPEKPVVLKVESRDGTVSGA
Sequence of Voltage-gated inwardly rectifying potassium channel KCNH2 (Q12809 whole entry): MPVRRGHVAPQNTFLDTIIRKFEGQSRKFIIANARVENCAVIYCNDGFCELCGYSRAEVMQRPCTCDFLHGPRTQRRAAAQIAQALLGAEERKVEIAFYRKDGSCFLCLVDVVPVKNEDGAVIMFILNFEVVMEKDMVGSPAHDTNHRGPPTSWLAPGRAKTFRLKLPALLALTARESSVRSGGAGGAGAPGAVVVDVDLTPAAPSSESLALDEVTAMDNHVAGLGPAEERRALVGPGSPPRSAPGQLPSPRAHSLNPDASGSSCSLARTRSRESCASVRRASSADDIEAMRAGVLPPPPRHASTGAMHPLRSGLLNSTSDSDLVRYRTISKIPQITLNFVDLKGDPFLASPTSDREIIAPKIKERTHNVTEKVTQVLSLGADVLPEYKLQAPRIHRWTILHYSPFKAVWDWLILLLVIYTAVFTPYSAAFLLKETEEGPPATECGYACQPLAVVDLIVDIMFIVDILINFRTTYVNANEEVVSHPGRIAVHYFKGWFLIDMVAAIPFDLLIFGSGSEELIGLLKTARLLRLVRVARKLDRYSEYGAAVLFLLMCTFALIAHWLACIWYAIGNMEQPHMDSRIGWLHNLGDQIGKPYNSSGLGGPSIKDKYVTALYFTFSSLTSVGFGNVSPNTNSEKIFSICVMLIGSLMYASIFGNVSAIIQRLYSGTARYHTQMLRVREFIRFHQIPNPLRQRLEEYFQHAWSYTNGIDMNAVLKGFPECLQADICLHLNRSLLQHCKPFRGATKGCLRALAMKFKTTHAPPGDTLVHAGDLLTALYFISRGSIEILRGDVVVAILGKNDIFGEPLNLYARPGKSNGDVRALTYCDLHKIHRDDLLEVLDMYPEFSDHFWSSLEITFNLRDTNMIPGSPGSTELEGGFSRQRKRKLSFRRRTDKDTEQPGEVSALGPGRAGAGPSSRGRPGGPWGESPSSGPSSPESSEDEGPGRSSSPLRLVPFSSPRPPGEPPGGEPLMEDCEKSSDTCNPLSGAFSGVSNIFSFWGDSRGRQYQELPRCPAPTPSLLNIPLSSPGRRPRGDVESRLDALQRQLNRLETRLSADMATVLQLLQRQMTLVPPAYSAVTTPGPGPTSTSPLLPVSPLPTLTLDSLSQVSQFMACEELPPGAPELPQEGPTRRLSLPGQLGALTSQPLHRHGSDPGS

SMILES	IC50 [1]	IC50 [2]	microsomal CLint at 1 µM [3]	microsomal CLint at 1 µM [4]	IC50 [5]	Papp A→B at 1 h, 5 µM [6]	Papp B→A at 1 h, 5 µM [7]	efflux ratio at 1 h, 5 µM [8]	IC50 [9]	IC50 [10]	IC50 [11]	IC50 [12]	IC50 [13]	Papp at 1 h, 100 µM [14]
C[C@H](Oc1ccc(C#N)cc1C(=O)N1Cc2cn(-c3ccccc3F)nc2C1)C(F)(F)F	0.078 µM	0.108 µM	13.5 µL/min/mg	451 µL/min/mg	> 10 µM	57.4 ×10⁻⁶ cm/s	61.7 ×10⁻⁶ cm/s	1.1	> 10 µM	> 10 µM	> 10 µM	> 10 µM	> 10 µM	> 10 ×10⁻⁶ cm/s
CS(=O)(=O)c1ccc(OCC2CC2)c(C(=O)N2Cc3cn(-c4ccccc4F)nc3C2)c1	0.038 µM	0.028 µM	0.3 µL/min/mg	5.3 µL/min/mg	9.9 µM	24.6 ×10⁻⁶ cm/s	58.9 ×10⁻⁶ cm/s	2.4	> 10 µM	> 10 µM	> 10 µM	> 10 µM	> 10 µM	77.9 ×10⁻⁶ cm/s
